# Article PMC11078746 (Nature, 2024)
# Where “and” joins values, the source holds several entries; their conditions need not be identical. Equal entries are not always repeated.
# Tested on: SW48 xenografts
# Experiment: SW48 cell-derived xenograft efficacy, HRO761 orally once daily
# Assay type: in vivo, mouse
# Protocol: All animal studies were conducted in accordance with ethics and procedures covered by permit BS-2275 and BS-1975 issued by the Kantonales Veterinäramt Basel-Stadt and in strict adherence to guidelines of the Eidgenössisches Tierschutzgesetz and the Eidgenössische Tierschutzverordnung, Switzerland. All animal studies were approved by the internal ethics committee. All animals had access to food and water ad libitum and were identified with transponders. They were housed in a specific-pathogen-free facility in IVC racks under a 12 h–12 h light–dark cycle. To establish cell-line-derived xenograft models, 6–7-week-old female athymic nude (Crl:NU(NCr)-Foxn1^nu) or SCID-BEIGE (CB17.Cg-PrkdcscidLystbg-J/Crl) mice from Charles River were engrafted subcutaneously with 5 million tumour cells in HBSS (H6648, Sigma-Aldrich). For SNU-407, Lovo, IM95, RL95.2, Ishikawa and IGROV-1, the cells were concentrated in 50% Matrigel (354234, Corning). Patient-derived xenografts were induced and expanded by transplantation as previously described. […] For the efficacy experiment, mice were randomized into groups (n = 5–6) for a mean tumour size of 100–150 mm^3. […] Blood samples were collected on day 7 and 91. […] Tumour responses are reported with the measures of tumour volumes from the treatment start. […] Animals were randomized (n = 3) and tumour samples were collected at 0, 1, 4, 8 and 24 h on the first day and then collected 4 h after the last treatment on day 3, 8, 10, 14 (including a 24 h timepoint), 17 and 21. Tumours were excised, weighed, either frozen in liquid nitrogen and cryogenic dry pulverized with the CryoPrep system (model CP-02, Covaris) or processed to FFPE after fixation. […] On day 12, blood samples were collected for PK analysis. On the last day (3 h after the last treatment), tumours were excised, weighed, frozen in liquid nitrogen and cryogenic dry pulverized for PD analysis.
structure (smiles),measurement,setting,value
CCc1c(N2CCN(C(=O)c3ncnc(C)c3O)CC2)c(=O)n2nc(C3=CCOCC3)nc2n1CC(=O)Nc1ccc(C(F)(F)F)cc1Cl [HRO761],max Reg (%) or max T/C (%),10 mg/kg,94.00%
same,tumour response,"20 mg per kg, once daily oral",tumour stasis
same,max Reg (%) or max T/C (%),20 mg/kg,6.00%
same,max Reg (%) or max T/C (%),30 mg/kg,-69.00%
same,max Reg (%) or max T/C (%),40 mg/kg,-75.00%
same,max Reg (%) or max T/C (%),60 mg/kg,-85.00%
same,max Reg (%) or max T/C (%),120 mg/kg,-89.00%
same,Mean TVol,"HRO761 20mg/kg, day 0 post 1st dose",148.57 mm3
same,Mean TVol,"HRO761 20mg/kg, day 3 post 1st dose",172.19 mm3
same,Mean TVol,"HRO761 20mg/kg, day 7 post 1st dose",214.06 mm3
same,Mean TVol,"HRO761 20mg/kg, day 10 post 1st dose",199.01 mm3
same,Mean TVol,"HRO761 20mg/kg, day 14 post 1st dose",193.54 mm3
same,"TVol, individual mouse","HRO761 20mg/kg, day 14 post 1st dose, 20 mg/kg",183.48 mm3 and 119.53 mm3 and 120.69 mm3 and 296.11 mm3 and 247.89 mm3
same,Mean TVol,"HRO761 20mg/kg, day 17 post 1st dose",171.07 mm3
same,"TVol, individual mouse","HRO761 20mg/kg, day 17 post 1st dose, 20 mg/kg",183.94 mm3 and 118.26 mm3 and 128.1 mm3 and 182.42 mm3 and 242.62 mm3
same,Mean TVol,"HRO761 20mg/kg, day 21 post 1st dose",210.51 mm3
same,"TVol, individual mouse","HRO761 20mg/kg, day 21 post 1st dose, 20 mg/kg",237.44 mm3 and 188.88 mm3 and 167.52 mm3 and 218.78 mm3 and 239.95 mm3
same,Mean TVol,"HRO761 20mg/kg, day 24 post 1st dose",217.13 mm3
same,"TVol, individual mouse","HRO761 20mg/kg, day 24 post 1st dose, 20 mg/kg",213.9 mm3 and 149.74 mm3 and 186.94 mm3 and 199.91 mm3 and 335.14 mm3
same,Mean TVol,"HRO761 20mg/kg, day 28 post 1st dose",270.81 mm3
same,"TVol, individual mouse","HRO761 20mg/kg, day 28 post 1st dose, 20 mg/kg",244.97 mm3 and 189.99 mm3 and 254.46 mm3 and 269.33 mm3 and 395.3 mm3
same,Mean TVol,"HRO761 20mg/kg, day 31 post 1st dose",317.23 mm3
same,Mean TVol,"HRO761 20mg/kg, day 35 post 1st dose",380.57 mm3
same,Mean TVol,"HRO761 20mg/kg, day 38 post 1st dose",438.75 mm3
same,Mean TVol,"HRO761 20mg/kg, day 42 post 1st dose",626.99 mm3
same,Mean TVol,"HRO761 20mg/kg, day 45 post 1st dose",658.99 mm3
same,Mean TVol,"HRO761 40mg/kg, day 0 post 1st dose",148.59 mm3
same,Mean TVol,"HRO761 40mg/kg, day 3 post 1st dose",162.25 mm3
same,Mean TVol,"HRO761 40mg/kg, day 7 post 1st dose",181.10 mm3
same,Mean TVol,"HRO761 40mg/kg, day 10 post 1st dose",146.66 mm3
same,Mean TVol,"HRO761 40mg/kg, day 14 post 1st dose",133.58 mm3
same,"TVol, individual mouse","HRO761 40mg/kg, day 14 post 1st dose, 40 mg/kg",137.47 mm3 and 92.79 mm3 and 146.32 mm3 and 135.46 mm3 and 155.86 mm3
same,Mean TVol,"HRO761 40mg/kg, day 17 post 1st dose",95.84 mm3
same,"TVol, individual mouse","HRO761 40mg/kg, day 17 post 1st dose, 40 mg/kg",84.05 mm3 and 68.24 mm3 and 117.68 mm3 and 91.67 mm3 and 117.57 mm3
same,Mean TVol,"HRO761 40mg/kg, day 21 post 1st dose",84.88 mm3
same,"TVol, individual mouse","HRO761 40mg/kg, day 21 post 1st dose, 40 mg/kg",65.27 mm3 and 62.26 mm3 and 114.98 mm3 and 87.79 mm3 and 94.1 mm3
same,Mean TVol,"HRO761 40mg/kg, day 24 post 1st dose",52.61 mm3
same,"TVol, individual mouse","HRO761 40mg/kg, day 24 post 1st dose, 40 mg/kg",40.05 mm3 and 34.46 mm3 and 63.81 mm3 and 55.22 mm3 and 69.51 mm3
same,Mean TVol,"HRO761 40mg/kg, day 28 post 1st dose",44.44 mm3
same,"TVol, individual mouse","HRO761 40mg/kg, day 28 post 1st dose, 40 mg/kg",41.72 mm3 and 27.23 mm3 and 46.41 mm3 and 45.86 mm3 and 60.97 mm3
same,Mean TVol,"HRO761 40mg/kg, day 31 post 1st dose",37.24 mm3
same,Mean TVol,"HRO761 40mg/kg, day 35 post 1st dose",32.88 mm3
same,Mean TVol,"HRO761 40mg/kg, day 38 post 1st dose",33.30 mm3
same,Mean TVol,"HRO761 40mg/kg, day 42 post 1st dose",36.90 mm3
same,Mean TVol,"HRO761 40mg/kg, day 45 post 1st dose",34.79 mm3
same,Mean TVol,"HRO761 40mg/kg, day 49 post 1st dose",37.27 mm3
same,Mean TVol,"HRO761 40mg/kg, day 52 post 1st dose",35.78 mm3
same,Mean TVol,"HRO761 40mg/kg, day 56 post 1st dose",46.42 mm3
same,Mean TVol,"HRO761 40mg/kg, day 59 post 1st dose",55.91 mm3
same,Mean TVol,"HRO761 40mg/kg, day 63 post 1st dose",77.49 mm3
same,Mean TVol,"HRO761 40mg/kg, day 66 post 1st dose",84.81 mm3
same,Mean TVol,"HRO761 40mg/kg, day 70 post 1st dose",105.06 mm3
same,Mean TVol,"HRO761 40mg/kg, day 73 post 1st dose",118.43 mm3
same,Mean TVol,"HRO761 40mg/kg, day 76 post 1st dose",139.13 mm3
same,Mean TVol,"HRO761 40mg/kg, day 79 post 1st dose",184.71 mm3
same,Mean TVol,"HRO761 40mg/kg, day 83 post 1st dose",215.37 mm3
same,Mean TVol,"HRO761 40mg/kg, day 86 post 1st dose",261.40 mm3
same,Mean TVol,"HRO761 40mg/kg, day 90 post 1st dose",329.03 mm3
same,Mean TVol,"HRO761 40mg/kg, day 92 post 1st dose",334.15 mm3
same,Mean TVol,"HRO761 60mg/kg, day 0 post 1st dose",148.59 mm3
same,Mean TVol,"HRO761 60mg/kg, day 3 post 1st dose",184.38 mm3
same,Mean TVol,"HRO761 60mg/kg, day 7 post 1st dose",168.35 mm3
same,Mean TVol,"HRO761 60mg/kg, day 10 post 1st dose",139.22 mm3
